Common to all, as to type: cell-based
Test [1] deals with T1, human EDG8 (S1PR5) receptor (Homo sapiens, UniProt Q9H228).
T1 construct: carries the transgenes human EDG8 (S1PR5) receptor (Acession number NP_110387.1); expressed in transfected cells; host or cells: CHO-A21-EDG8#12 (CHO clone co-expressing mitochondrial aequorin and chimaeric Gaqi5)
The test can be described thus: Aequorin assay, agonist potency, CHO-A21-EDG8#12 cells. The conditions noted are these: agonist mode, aequorin luminescence; read-out: S1P5 EC50 range #. The method in brief: (§1)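 CHO cells coexpressing receptor, mitochondrial aequorin and Gαqi5 (S1P3 pool: GNA16) were loaded overnight at RT with 5 μM coelenterazine h in 0.1% fatty-acid-free BSA buffer. Cells were injected onto compound, luminescence recorded 90 s and integrated, normalised to digitonin or 20 μM ATP; sigmoidal fit.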

For test [2], the target named is T2, human EDG1 (S1PR1) receptor (Homo sapiens, UniProt P21453).
T2 construct: expressed in transfected cells; host or cells: CHO-A21-Edg1#17 (CHO clone co-expressing mitochondrial aequorin and chimaeric Gaqi5)
The test can be described thus: Aequorin assay, agonist potency, CHO-A21-Edg1#17 cells. The conditions noted are these: agonist mode, aequorin luminescence; read-out: S1P1 EC50. The method in brief: as §1

In a further test the target is T3, S1P4 (Homo sapiens, UniProt O95977).
T3 sequence (O95977 1-384): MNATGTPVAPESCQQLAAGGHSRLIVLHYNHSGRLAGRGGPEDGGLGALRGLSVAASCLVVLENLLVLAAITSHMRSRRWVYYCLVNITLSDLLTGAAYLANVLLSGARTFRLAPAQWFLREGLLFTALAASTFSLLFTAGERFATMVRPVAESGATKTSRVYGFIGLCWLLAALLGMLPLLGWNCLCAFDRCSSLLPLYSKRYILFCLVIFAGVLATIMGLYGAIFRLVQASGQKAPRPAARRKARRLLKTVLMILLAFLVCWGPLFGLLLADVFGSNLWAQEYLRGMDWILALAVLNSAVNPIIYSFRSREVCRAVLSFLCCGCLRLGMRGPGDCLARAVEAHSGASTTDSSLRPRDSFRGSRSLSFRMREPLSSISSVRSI
The test can be described thus: Aequorin assay, agonist potency, S1P4. The note with it: agonist mode, aequorin luminescence. In a few lines:
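Aequorin luminescence read over 90 s after adding coelenterazine h–loaded cells (5 μM, overnight, RT) to test compound in phenol red-free DMEM/F12 buffer containing 0.1% fatty acid-free BSA. Responses integrated, scaled to the 100% signal from 100 μM digitonin or 20 μM ATP, and fitted to a sigmoidal dose-response model.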

The term EC50 denotes the concentration needed to bring the measured effect to its halfway point.

T1 sequence (Q9H228 whole entry): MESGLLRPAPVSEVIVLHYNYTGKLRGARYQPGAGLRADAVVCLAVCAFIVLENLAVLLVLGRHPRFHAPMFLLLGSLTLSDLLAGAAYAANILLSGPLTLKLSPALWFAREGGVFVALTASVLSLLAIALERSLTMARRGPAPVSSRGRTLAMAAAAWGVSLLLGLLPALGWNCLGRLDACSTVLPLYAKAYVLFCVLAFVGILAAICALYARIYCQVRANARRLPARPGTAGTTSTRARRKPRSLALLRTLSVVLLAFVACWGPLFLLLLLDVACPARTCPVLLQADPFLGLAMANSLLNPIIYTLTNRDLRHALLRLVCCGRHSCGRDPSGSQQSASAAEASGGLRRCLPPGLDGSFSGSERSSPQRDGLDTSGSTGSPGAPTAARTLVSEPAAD
T2 sequence (P21453 whole entry): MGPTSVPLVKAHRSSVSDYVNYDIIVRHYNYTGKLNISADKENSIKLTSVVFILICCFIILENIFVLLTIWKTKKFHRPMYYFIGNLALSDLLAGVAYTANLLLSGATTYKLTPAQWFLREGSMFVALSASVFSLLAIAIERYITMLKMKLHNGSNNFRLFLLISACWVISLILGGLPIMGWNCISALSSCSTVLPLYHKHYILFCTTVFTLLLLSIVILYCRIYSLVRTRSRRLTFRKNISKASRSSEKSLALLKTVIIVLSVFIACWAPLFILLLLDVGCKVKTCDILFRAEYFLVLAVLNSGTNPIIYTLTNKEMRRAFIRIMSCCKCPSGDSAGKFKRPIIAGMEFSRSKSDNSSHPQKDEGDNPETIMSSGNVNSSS

`CCOc1ccc(COc2ccc3c(c2)CC2(C3)CN(CC3(C(=O)O)CC3)C2)c(Cl)c1` [Example 32, 1-((5′-((2-chloro-4-ethoxybenzyl)oxy)-1′,3′-dihydrospiro[azetidine-3,2′-inden]-1-yl)methyl)cyclopropanecarboxylic acid]: the EC50 in test [1] is 1000 to 10000 nM; in test [2], above 1000 nM; on S1P4, below 1000 nM.

Turning to `N#Cc1cccc(COc2ccc3c(c2)CC2(C3)CN(CC3(C(=O)O)CC3)C2)c1` [Example 147, 1-((5′-((3-cyanobenzyl)oxy)-1′,3′-dihydrospiro[azetidine-3,2′-inden]-1-yl)methyl)cyclopropanecarboxylic acid], the values for the EC50 (in test [1]; in test [2]; at S1P4) were 100 to 1000 nM, above 1000 nM and below 1000 nM, respectively.

With `O=C(O)C1CC(N2CC3(Cc4ccc(OCc5cc(Cl)ccc5Cl)cc4C3)C2)C1` (stereo not drawn) [Example 93, 3-(5′-((2,5-dichlorobenzyl)oxy)-1′,3′-dihydrospiro[azetidine-3,2′-inden]-1-yl)cyclobutanecarboxylic acid], the concentration giving a half-maximal response (EC50) was 10 to 100 nM in test [1], above 1000 nM in test [2] and below 1000 nM at S1P4.

Regarding `CCOc1cc(F)c(COc2ccc3c(c2)CC2(C3)CN(CC3(C(=O)O)CC3)C2)c(F)c1` [Example 122, 1-((5′-((4-ethoxy-2,6-difluorobenzyl)oxy)-1′,3′-dihydrospiro[azetidine-3,2′-inden]-1-yl)methyl)cyclopropanecarboxylic acid], the results for the 50% effective concentration (EC50) (in test [1]; in test [2]; at S1P4) were 1000 to 10000 nM, above 1000 nM and below 1000 nM, respectively.

Turning to `CCc1ccc(COc2ccc3c(c2)CC2(C3)CN(CC(=O)O)C2)c(Cl)c1` [Example 4, 2-(5′-((2-chloro-4-ethylbenzyl)oxy)-1′,3′-dihydrospiro[azetidine-3,2′-inden]-1-yl)acetic acid], the values for the half-maximal effective concentration (EC50) (in test [1]; in test [2]; at S1P4) were 100 to 1000 nM, above 1000 nM and below 1000 nM, respectively.

`O=C(O)[C@H]1C[C@H](N2CC3(Cc4ccc(OCc5cc(Cl)ccc5Cl)cc4C3)C2)C1` [Example 89, (1r,3r)-3-(5′-((2,5-dichlorobenzyl)oxy)-1′,3′-dihydrospiro[azetidine-3,2′-inden]-1-yl)cyclobutanecarboxylic acid]: the EC50 in test [1] is 10 to 100 nM; in test [2] it was above 1000 nM; on S1P4, below 1000 nM.

Regarding `COc1ccc(COc2ccc3c(c2)CC2(C3)CN(C3CC(C(=O)O)C3)C2)c(C)n1` (stereo not drawn) [Example 88, 3-(5′-((6-methoxy-2-methylpyridin-3-yl)methoxy)-1′,3′-dihydrospiro[azetidine-3,2′-inden]-1-yl)cyclobutanecarboxylic acid], the values for the EC50 (in test [1]; in test [2]; at S1P4) were 1000 to 10000 nM, above 1000 nM and below 1000 nM, respectively.

For the molecule `O=C(O)C1(CN2CC3(Cc4ccc(OCc5c(F)cccc5Cl)cc4C3)C2)CC1` [Example 34, 1-((5′-((2-chloro-6-fluorobenzyl)oxy)-1′,3′-dihydrospiro[azetidine-3,2′-inden]-1-yl)methyl)cyclopropanecarboxylic acid compound with 2,2,2-trifluoroacetic acid (1:1)], the figures for the concentration for a half-maximal effect (EC50) (in test [1]; in test [2]; on S1P4) were 1000 to 10000 nM, above 1000 nM and below 1000 nM, respectively.

As to `O=C(O)CN1CC2(Cc3ccc(OCCOc4ccccc4)cc3C2)C1` [Example 70, 2-(5′-(2-phenoxyethoxy)-1′,3′-dihydrospiro[azetidine-3,2′-inden]-1-yl)acetic acid], the figures for the EC50 (in test [1]; in test [2]; on S1P4) were 100 to 1000 nM, above 1000 nM and below 1000 nM, respectively.

Take `COc1cccc(Cl)c1COc1ccc2c(c1)CC1(C2)CN(CC(=O)O)C1` [Example 9, 2,2,2-trifluoroacetic acid compound with 2-(5′-((2-chloro-6-methoxybenzyl)oxy)-1′,3′-dihydrospiro[azetidine-3,2′-inden]-1-yl)acetic acid (1:1)]: the 50% effective concentration (EC50) in test [1] was 100 to 1000 nM; in test [2], above 1000 nM; at S1P4, above 1000 nM.

Turning to `CCc1cccc(Cl)c1COc1ccc2c(c1)CC1(C2)CN(C2CC(C(=O)O)C2)C1` (stereo not drawn) [Example 94, 3-(5′-((2-chloro-6-ethylbenzyl)oxy)-1′,3′-dihydrospiro[azetidine-3,2′-inden]-1-yl)cyclobutanecarboxylic acid], the 50% effective concentration (EC50) was at most 10 nM in test [1], below 1000 nM in test [2] and below 1000 nM on S1P4.

On to `O=C(O)C1(CN2CC3(Cc4ccc(OCCc5ccccc5Cl)cc4C3)C2)CC1` [Example 58, 1-((5′-(2-chlorophenethoxy)-1′,3′-dihydrospiro[azetidine-3,2′-inden]-1-yl)methyl)cyclopropanecarboxylic acid], for which the concentration for a half-maximal effect (EC50) is 100 to 1000 nM in test [1], above 1000 nM in test [2] and below 1000 nM at S1P4.

As to `CCOc1ccc(COc2ccc3c(c2)CC2(C3)CN(CC3(C(=O)O)CC3)C2)cc1` [Example 35, 1-((5′-((4-ethoxybenzyl)oxy)-1′,3′-dihydrospiro[azetidine-3,2′-inden]-1-yl)methyl)cyclopropanecarboxylic acid], the EC50 in test [1] is 1000 to 10000 nM; in test [2], above 1000 nM; at S1P4, below 1000 nM.

As for `CC(Oc1ccc(C#Cc2ccc3c(c2)CC2(C3)CN(C3CC(C(=O)O)C3)C2)cn1)C(F)(F)F` (stereo not drawn) [Example 103, 3-(5′-((6-((1,1,1-trifluoropropan-2-yl)oxy)pyridin-3-yl)ethynyl)-1′,3′-dihydrospiro[azetidine-3,2′-inden]-1-yl)cyclobutanecarboxylic acid], the values for the EC50 (in test [1]; in test [2]; at S1P4) were at most 10 nM, below 1000 nM and below 1000 nM, respectively.

On to `O=C(O)C1CC(N2CC3(Cc4ccc(OC5CCc6ccccc65)cc4C3)C2)C1` (stereo not drawn) [Example 104, 3-(5′-((2,3-dihydro-1H-inden-1-yl)oxy)-1′,3′-dihydrospiro[azetidine-3,2′-inden]-1-yl)cyclobutanecarboxylic acid], for which the EC50 in test [1] was at most 10 nM; in test [2], above 1000 nM; on S1P4, below 1000 nM.

On to `CC(C)Oc1ccc(CCc2ccc3c(c2)CC2(C3)CN(CC3(C(=O)O)CC3)C2)cn1` [Example 119, 1-((5′-(2-(6-isopropoxypyridin-3-yl)ethyl)-1′,3′-dihydrospiro[azetidine-3,2′-inden]-1-yl)methyl)cyclopropanecarboxylic acid], for which the values for the EC50 (in test [1]; in test [2]; at S1P4) were 1000 to 10000 nM, above 1000 nM and above 1000 nM, respectively.

With `O=C(O)CN1CC2(Cc3ccc(OCCc4ccccc4Cl)cc3C2)C1` [Example 61, 2-(5′-(2-chlorophenethoxy)-1′,3′-dihydrospiro[azetidine-3,2′-inden]-1-yl)acetic acid], the EC50 in test [1] was 10 to 100 nM; in test [2], above 1000 nM; on S1P4, below 1000 nM.

As for `CCc1cccc(F)c1COc1ccc2c(c1)CC1(C2)CN(CC2(C(=O)O)CC2)C1` [Example 48, 1-((5′-((2-ethyl-6-fluorobenzyl)oxy)-1′,3′-dihydrospiro[azetidine-3,2′-inden]-1-yl)methyl)cyclopropanecarboxylic acid], the half-maximal effective concentration (EC50) in test [1] is at most 10 nM; in test [2], above 1000 nM; at S1P4 it was below 1000 nM.

In the case of `Cc1ccccc1CCOc1ccc2c(c1)CC1(C2)CN(CC2(C(=O)O)CC2)C1` [Example 134, 1-((5′-(2-methylphenethoxy)-1′,3′-dihydrospiro[azetidine-3,2′-inden]-1-yl)methyl)cyclopropanecarboxylic acid], the EC50 in test [1] is 1000 to 10000 nM; in test [2], above 1000 nM; at S1P4, below 1000 nM.

Regarding `O=C(O)C1(CN2CC3(Cc4ccc(OCCc5ccccc5)cc4C3)C2)CC1` [Example 54, 1-((5′-phenethoxy-1′,3′-dihydrospiro[azetidine-3,2′-inden]-1-yl)methyl)cyclopropanecarboxylic acid], the values for the concentration for a half-maximal effect (EC50) (in test [1]; in test [2]; on S1P4) were 1000 to 10000 nM, above 1000 nM and below 1000 nM, respectively.

With `O=C(O)C1CC(N2CC3(Cc4ccc(C#Cc5ccc(OC6CCCC6)nc5)cc4C3)C2)C1` (stereo not drawn) [Example 95, 3-(5′-((6-(cyclopentyloxy)pyridin-3-yl)ethynyl)-1′,3′-dihydrospiro[azetidine-3,2′-inden]-1-yl)cyclobutanecarboxylic acid], the concentration for a half-maximal effect (EC50) in test [1] is at most 10 nM; in test [2], below 1000 nM; at S1P4 it was below 1000 nM.

Regarding `CCOc1ccc(C#Cc2ccc3c(c2)CC2(C3)CN(CC(=O)O)C2)cc1` [Example 77, 2-(5′-((4-ethoxyphenyl)ethynyl)-1′,3′-dihydrospiro[azetidine-3,2′-inden]-1-yl)acetic acid], the values for the EC50 (in test [1]; in test [2]; on S1P4) were at most 10 nM, below 1000 nM and below 1000 nM, respectively.

The record behind these values is US20200055817A1 (AbbVie Deutschland GmbH & Co. KG, priority 2016, published 2020).
